This note sets out measurements from US8574604B2, “Methods and compositions for the delivery of biologically active agents” (Interface Biologics, Inc., priority 2005, dated 2013).

The nature of the data set: UV/Vis measurement of Methyl Violet complexation by CyD-OF. The format is physicochemical. The note with it: Methyl Violet 0.01 mg/mL in DMSO; decrease in absorbance indicates complexation. The protocol: CyD-OF (3a) ([…]) was dissolved in DMSO (75 μL). A solution of Methyl Violet (MV, 2.8 mg) in DMSO (28 mL) was prepared at 0.1 mg/mL. One mL of Methyl Violet solution was further diluted with DMSO (10 mL) to form a 0.01 mg/mL solution. The CyD-OF solution (75 μL) was added dropwise to a solution of MV (500 μL) in a 4 mL glass vial over the course of ten minutes. This solution was sealed and left in the dark for 12 hours. A UV/Vis measurement of the Methyl Violet solution at 0.01 mg/mL was taken (A (591 nm)=0.96) as control. The UV/Vis spectrum of the CyD-OF was measured at A (591 nm)=0.63, indicating the intensity of the guest molecules evidently to change upon the addition of molecular receptors. Upon complexation the absorbance decreased, confirming the formation of a complex. A control solution was also prepared.

For Methyl Violet, the “UV/Vis absorbance A (591 nm)” value is given as 0.96.
